From patent US8114897B2, “Pesticidal composition and method for controlling a pest” (priority 2007, dated 2012)

Experiments:
[1] = tested on: cockroaches Blattella germanica; test: Referential Test Example: spray test on hidden cockroaches, mortality rate; type: in vivo; conditions: 4.2 mL test formulation solution (ingredient concentrations % (w/v) per Table 2, in diethylene glycol monomethylether) sprayed in 70 cm cubic glass box; 10 cockroaches; transferred after 10 minutes; counted after 3 days; average of duplicate
Text: Suitable amounts of the compound A and either (E)-N^1-[(6-chloro-3-pyridyl)methyl]-N^2-cyano-N^1-methylacetamidine (general name: acetamiprid, hereinafter, referred to as N-cyanoacetamidine compound) or 1-(6-chloro-3-pyridylmethyl)-N-nitroimidazolidin-2-ylidene amine (general name: imidacloprid, hereinafter referred to as nitroimidazoline compound) are mixed with diethylene glycol monomethylether, to give test formulation solutions containing the compound A and either the N-cyano acetamidine or nitroimidazoline compound at particular concentrations (see Table 2).
(§1) A triangular prism wooden container (regular triangle having a base of 3.5 cm and a height of 15 cm) containing 10 cockroaches Blattella germanica (5 males and 5 females) hidden therein was placed in the bottom center of a cubic glass box having a base of 70 cm. 4.2 Milliliters of the test formulation solution was sprayed on the glass box with a spray gun. In 10 minutes after the spraying, the cockroaches were transferred into a plastic container containing food and water and left there for 3 days. The number of live cockroaches was then counted, to give a mortality rate.

[2] = tested on: cockroaches Blattella germanica; test: Test Example: spray test on hidden cockroaches, mortality rate; type: in vivo; conditions: 4.2 mL test formulation solution (ingredient concentrations % (W/V) per Table 1, in diethylene glycol monomethylether) sprayed in 70 cm cubic glass box; 10 cockroaches; transferred after 10 minutes; counted after 3 days; average of duplicate
Text: Suitable amounts of 4-methoxymethyl-2,3,5,6-tetrafluorobenzyl(1R)-trans-3-(2-cyano-1-propenyl)-2,2-dimethylcyclopropanecarboxylate (isomer ratio, based on double bond, Z/E: approximately 2/1) (hereinafter, referred to as compound A) and/or clothianidin (manufactured by Sumika Takeda Agrochemicals Co.) are mixed with diethylene glycol monomethylether, to give a test formulation solution containing the compound A and/or clothianidin at particular concentrations (see Table 1).
as §1, with “cm square.” for “cm.”

Row | SMILES | Mortality rate (%) [1] [%] | Mortality rate (%) [2] [%]
1 | C/C(=N\C#N)N(C)Cc1ccc(Cl)nc1 [compound 12, (E)-N^1-[(6-chloro-3-pyridyl)methyl]-N^2-cyano-N^1-methylacetamidine] | 5 | –
2 | O=[N+]([O-])NC1=NCCN1Cc1ccc(Cl)nc1 [compound 13, 1-(6-chloro-3-pyridylmethyl)-N-nitroimidazolidin-2-ylidene amine] | 15 | –
3 | COCc1c(F)c(F)c(COC(=O)[C@@H]2[C@@H](C=C(C)C#N)C2(C)C)c(F)c1F [compound 7, 4-methoxymethyl-2,3,5,6-tetrafluorobenzyl(1R)-trans-3-(2-cyano-1-propenyl)-2,2-dimethylcyclopropanecarboxylate] | 5 | 5
4 | CN/C(=N\[N+](=O)[O-])NCc1cnc(Cl)s1 [compound 8, 1-(2-chloro-1,3-thiazolyl)methyl-3-methyl-2-nitroguanidine] | – | 35
